{"source": "paper PMC3261875", "about": "(PLoS ONE, 2012)", "biological_target": "T1, human heme oxygenase-2 (hHO-2) (Homo sapiens, UniProt P30519)", "T1 construct": "gene HMOX2; truncation derivative, 1–264 amino acids with an N-terminal His-tag", "T1 sequence (P30519 1-264)": "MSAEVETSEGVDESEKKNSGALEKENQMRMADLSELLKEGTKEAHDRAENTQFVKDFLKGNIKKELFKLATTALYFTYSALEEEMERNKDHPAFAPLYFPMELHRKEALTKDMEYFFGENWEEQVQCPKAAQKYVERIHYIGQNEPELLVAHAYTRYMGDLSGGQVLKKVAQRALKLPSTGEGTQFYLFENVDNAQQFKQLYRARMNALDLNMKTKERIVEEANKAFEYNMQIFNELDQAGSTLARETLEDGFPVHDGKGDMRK", "assay": "spectral (Soret) binding and heme degradation assay on purified protein"}
{"smiles": "O=C(CC(c1ccccc1)c1ccccc1)Cn1ccnc1", "note": "[QC-308, 1-(1H-imidazol-1-yl)-4,4-diphenyl-2-butanone]", "values": [{"measurement": "spectral (Soret) binding and heme degradation assay on purified protein", "result": "the spectral changes upon addition of QC-308 were similar to those seen for hHO-1"}]}
